The target of this assay is TRKA (Homo sapiens (Human), UniProt P04629). Put plainly: Isolated TRK enzyme assay (HTRF KinEASE-TK), TRKA. Type of assay: biochemical. To be noted: read-out: Trka enzyme (IC50). Background: TR-FRET usually uses a lanthanide donor and a delayed reading to cut background.
Sequence of TRKA (P04629 441-796): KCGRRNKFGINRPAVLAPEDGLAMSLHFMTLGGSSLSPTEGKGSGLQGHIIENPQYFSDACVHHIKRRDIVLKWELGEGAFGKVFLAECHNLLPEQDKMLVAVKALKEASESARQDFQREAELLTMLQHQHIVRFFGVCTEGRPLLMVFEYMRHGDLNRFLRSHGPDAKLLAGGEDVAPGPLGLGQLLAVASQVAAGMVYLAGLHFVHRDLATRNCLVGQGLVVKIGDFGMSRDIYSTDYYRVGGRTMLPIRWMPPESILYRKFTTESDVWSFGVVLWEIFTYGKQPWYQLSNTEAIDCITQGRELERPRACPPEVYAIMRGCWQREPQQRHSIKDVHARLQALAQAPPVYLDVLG
As usually defined, the IC50 is the concentration that gives 50% inhibition. As to `CC(C)n1cc(C(=O)c2cncc(NC(=O)Cn3ncc4ccccc43)c2)c2cncnc21` [Example 103, 2-(1H-indazol-1-yl)-N-{5-[(7-isopropyl-7H-pyrrolo[2,3-d]pyrimidin-5-yl)carbonyl]pyridin-3-yl}acetamide], the IC50 was 41.7 nM.
With `Cc1cc(C(C)C)nn1CC(=O)Nc1cncc(C(=O)c2cn(C(C)C)c3ncncc23)c1` [Example 104, 2-(3-isopropyl-5-methyl-1H-pyrazol-1-yl)-N-{5-[(7-isopropyl-7H-pyrrolo[2,3-d]pyrimidin-5-yl)carbonyl]pyridin-3-yl}acetamide], the IC50 was 20 nM.
Then `CC(C)c1cn(CC(=O)Nc2cncc(C(=O)c3cn(C(C)C)c4ncncc34)c2)nn1` [Example 105, N-{5-[(7-isopropyl-7H-pyrrolo[2,3-d]pyrimidin-5-yl)carbonyl]pyridin-3-yl}-2-(4-isopropyl-1H-1,2,3-triazol-1-yl)acetamide], with 25.6 nM.
Consider `CC(C)n1cc(C(=O)c2cncc(NC(=O)Cn3cc(C(F)(F)F)nn3)c2)c2cncnc21` [Example 106, N-{5-[(7-isopropyl-7H-pyrrolo[2,3-d]pyrimidin-5-yl)carbonyl]pyridin-3-yl}-2-[4-(trifluoromethyl)-1H-1,2,3-triazol-1-yl]acetamide], for which the IC50 came to 14.8 nM.
Consider `CC(C)n1cc(C(=O)c2cncc(NC(=O)Cn3ncc4cccc(F)c43)c2)c2cncnc21` [Example 107, 2-(7-fluoro-1H-indazol-1-yl)-N-{5-[(7-isopropyl-7H-pyrrolo[2,3-d]pyrimidin-5-yl)carbonyl]pyridin-3-yl}acetamide], for which the IC50 was found to be 12.3 nM.
In the case of `CC(C)n1cc(C(=O)c2cncc(NC(=O)Cn3nc4ccccc4n3)c2)c2cncnc21` [Example 108, 2-(2H-benzotriazol-2-yl)-N-{5-[(7-isopropyl-7H-pyrrolo[2,3-d]pyrimidin-5-yl)carbonyl]pyridin-3-yl}acetamide], the IC50 stood at 7.63 nM.
Then `Cc1[nH]c2c(F)cccc2c1CC(=O)Nc1cncc(C(=O)c2cn(C(C)C)c3ncncc23)c1` [Example 109, 2-(7-fluoro-2-methyl-1H-indol-3-yl)-N-{5-[(7-isopropyl-7H-pyrrolo[2,3-d]pyrimidin-5-yl)carbonyl]pyridin-3-yl}acetamide], with 65.1 nM; and `Cc1[nH]c2ccc(Cl)cc2c1CC(=O)Nc1cncc(C(=O)c2cn(C(C)C)c3ncncc23)c1` [Example 110, 2-(5-chloro-2-methyl-1H-indol-3-yl)-N-{5-[(7-isopropyl-7H-pyrrolo[2,3-d]pyrimidin-5-yl)carbonyl]pyridin-3-yl}acetamide], with 36.5 nM.
Consider `CC(C)n1cc(C(=O)c2cncc(NC(=O)Cn3ccc4ccccc43)c2)c2cncnc21` [Example 111, 2-(1H-indol-1-yl)-N-{5-[(7-isopropyl-7H-pyrrolo[2,3-d]pyrimidin-5-yl)carbonyl]pyridin-3-yl}acetamide], for which the IC50 turned out to be 46.2 nM.
For the compound `CC(C)n1ncc(CC(=O)Nc2cncc(C(=O)c3cn(C(C)C)c4ncncc34)c2)c1C(F)(F)F` [Example 112, N-{5-[(7-isopropyl-7H-pyrrolo[2,3-d]pyrimidin-5-yl)carbonyl]pyridin-3-yl}-2-[1-isopropyl-5-(trifluoromethyl)-1H-pyrazol-4-yl]acetamide], the IC50 was found to be 57.8 nM.
The same measure for `Cc1ccn(CC(=O)Nc2cncc(C(=O)c3cn(C(C)C)c4ncncc34)c2)n1` [Example 113, N-{5-[(7-isopropyl-7H-pyrrolo[2,3-d]pyrimidin-5-yl)carbonyl]pyridin-3-yl}-2-(3-methyl-1H-pyrazol-1-yl)acetamide]: 300 nM.
The same measure for `CC(C)n1cc(C(=O)c2cncc(NC(=O)Cn3cccn3)c2)c2cncnc21` [Example 114, N-{5-[(7-isopropyl-7H-pyrrolo[2,3-d]pyrimidin-5-yl)carbonyl]pyridin-3-yl}-2-(1H-pyrazol-1-yl)acetamide]: 976 nM; for `Cc1cc(C)n(CC(=O)Nc2cncc(C(=O)c3cn(C(C)C)c4ncncc34)c2)n1` [Example 115, 2-(3,5-dimethyl-1H-pyrazol-1-yl)-N-{5-[(7-isopropyl-7H-pyrrolo[2,3-d]pyrimidin-5-yl)carbonyl]pyridin-3-yl}acetamide]: 102 nM.
Take `Cc1[nH]c2ccccc2c1CC(=O)Nc1cncc(C(=O)c2cn(C(C)C)c3ncncc23)c1` [Example 116, N-{5-[(7-isopropyl-7H-pyrrolo[2,3-d]pyrimidin-5-yl)carbonyl]pyridin-3-yl}-2-(2-methyl-1H-indol-3-yl)acetamide]: the 50% inhibitory concentration (IC50) worked out at 103 nM.
Regarding `COc1ccc2[nH]cc(CC(=O)Nc3cncc(C(=O)c4cn(C(C)C)c5ncncc45)c3)c2c1` [Example 117, N-{5-[(7-isopropyl-7H-pyrrolo[2,3-d]pyrimidin-5-yl)carbonyl]pyridin-3-yl}-2-(5-methoxy-1H-indol-3-yl)acetamide], the IC50 was 68.4 nM.
For the compound `CC(C)n1cc(C(=O)c2cncc(NC(=O)Cc3cccnc3)c2)c2cncnc21` [Example 118, N-{5-[(7-isopropyl-7H-pyrrolo[2,3-d]pyrimidin-5-yl)carbonyl]pyridin-3-yl}-2-pyridin-3-ylacetamide], the IC50 was determined as 2550 nM.
The same measure for `CC(C)n1cc(C(=O)c2cncc(NC(=O)Cn3nnc4cc(Cl)ccc43)c2)c2cncnc21` [Example 119, 2-(5-chloro-1H-benzotriazol-1-yl)-N-{5-[(7-isopropyl-7H-pyrrolo[2,3-d]pyrimidin-5-yl)carbonyl]pyridin-3-yl}acetamide]: 233 nM.
Take `CC(C)n1cc(C(=O)c2cncc(NC(=O)Cn3ccc(-c4cccs4)n3)c2)c2cncnc21` [Example 120, N-{5-[(7-isopropyl-7H-pyrrolo[2,3-d]pyrimidin-5-yl)carbonyl]pyridin-3-yl}-2-[3-(2-thienyl)-1H-pyrazol-1-yl]acetamide]: the IC50 came out at 53 nM.
Take `Cc1ccn2cc(CC(=O)Nc3cncc(C(=O)c4cn(C(C)C)c5ncncc45)c3)nc2n1` [Example 121, N-{5-[(7-isopropyl-7H-pyrrolo[2,3-d]pyrimidin-5-yl)carbonyl]pyridin-3-yl}-2-(7-methylimidazo[1,2-a]pyrimidin-2-yl)acetamide]: the IC50 amounted to 5200 nM.
Turning to `Cc1nc(C)c2ncn(CC(=O)Nc3cncc(C(=O)c4cn(C(C)C)c5ncncc45)c3)c2n1` [Example 122, 2-(2,6-dimethyl-9H-purin-9-yl)-N-{5-[(7-isopropyl-7H-pyrrolo[2,3-d]pyrimidin-5-yl)carbonyl]pyridin-3-yl}acetamide], the IC50 was 5840 nM.
For `CC(C)n1cc(C(=O)c2cncc(NC(=O)Cn3ncc4ccc([N+](=O)[O-])cc43)c2)c2cncnc21` [Example 123, N-{5-[(7-isopropyl-7H-pyrrolo[2,3-d]pyrimidin-5-yl)carbonyl]pyridin-3-yl}-2-(6-nitro-1H-indazol-1-yl)acetamide], the IC50 amounted to 143 nM.
Then `CC(C)n1cc(C(=O)c2cncc(NC(=O)Cc3nn(C)c4ccc(Cl)cc34)c2)c2cncnc21` [Example 124, 2-(5-chloro-1-methyl-1H-indazol-3-yl)-N-{5-[(7-isopropyl-7H-pyrrolo[2,3-d]pyrimidin-5-yl)carbonyl]pyridin-3-yl}acetamide], with 244 nM; and `Cc1[nH]c2ccc(F)cc2c1CC(=O)Nc1cncc(C(=O)c2cn(C(C)C)c3ncncc23)c1` [Example 125, 2-(5-fluoro-2-methyl-1H-indol-3-yl)-N-{5-[(7-isopropyl-7H-pyrrolo[2,3-d]pyrimidin-5-yl)carbonyl]pyridin-3-yl}acetamide], with 148 nM; and `CC(C)n1cc(C(=O)c2cncc(NC(=O)Cc3cn4cc(Cl)ccc4n3)c2)c2cncnc21` [Example 126, 2-(6-chloroimidazo[1,2-a]pyridin-2-yl)-N-{5-[(7-isopropyl-7H-pyrrolo[2,3-d]pyrimidin-5-yl)carbonyl]pyridin-3-yl}acetamide], with 95.7 nM.
`Cc1nc2ccccc2n1CC(=O)Nc1cncc(C(=O)c2cn(C(C)C)c3ncncc23)c1` [Example 127, N-{5-[(7-isopropyl-7H-pyrrolo[2,3-d]pyrimidin-5-yl)carbonyl]pyridin-3-yl}-2-(2-methyl-1H-benzimidazol-1-yl)acetamide]: the IC50 turned out to be 1330 nM.
Consider `CC(C)n1cc(C(=O)c2cncc(NC(=O)Cc3cn4ccccc4n3)c2)c2cncnc21` [Example 128, 2-imidazo[1,2-a]pyridin-2-yl-N-{5-[(7-isopropyl-7H-pyrrolo[2,3-d]pyrimidin-5-yl)carbonyl]pyridin-3-yl}acetamide], for which the IC50 was 206 nM.
As for `COc1ccc2c(ccn2CC(=O)Nc2cncc(C(=O)c3cn(C(C)C)c4ncncc34)c2)n1` [Example 129, N-{5-[(7-isopropyl-7H-pyrrolo[2,3-d]pyrimidin-5-yl)carbonyl]pyridin-3-yl}-2-(5-methoxy-1H-pyrrolo[3,2-b]pyridin-1-yl)acetamide], the IC50 stood at 3860 nM.
Then `Cc1ccnn1CC(=O)Nc1cncc(C(=O)c2cn(C(C)C)c3ncncc23)c1` [Example 130, N-{5-[(7-isopropyl-7H-pyrrolo[2,3-d]pyrimidin-5-yl)carbonyl]pyridin-3-yl}-2-(5-methyl-1H-pyrazol-1-yl)acetamide], with 284 nM; and `Cc1cccc2ncn(CC(=O)Nc3cncc(C(=O)c4cn(C(C)C)c5ncncc45)c3)c12` [Example 131, N-{5-[(7-isopropyl-7H-pyrrolo[2,3-d]pyrimidin-5-yl)carbonyl]pyridin-3-yl}-2-(7-methyl-1H-benzimidazol-1-yl)acetamide], with 831 nM; and `CC(C)n1cc(C(=O)c2cncc(NC(=O)Cc3c[nH]c4ccccc34)c2)c2cncnc21` [Example 132, 2-(1H-indol-3-yl)-N-{5-[(7-isopropyl-7H-pyrrolo[2,3-d]pyrimidin-5-yl)carbonyl]pyridin-3-yl}acetamide], with 131 nM.
Take `CC(C)n1cc(C(=O)c2cncc(NC(=O)Cn3cnc4ccccc43)c2)c2cncnc21` [Example 133, 2-(1H-benzimidazol-1-yl)-N-{5-[(7-isopropyl-7H-pyrrolo[2,3-d]pyrimidin-5-yl)carbonyl]pyridin-3-yl}acetamide]: the IC50 was found to be 681 nM.
Consider `Cc1cc(CC(=O)Nc2cncc(C(=O)c3cn(C(C)C)c4ncncc34)c2)[nH]n1` [Example 134, N-{5-[(7-isopropyl-7H-pyrrolo[2,3-d]pyrimidin-5-yl)carbonyl]pyridin-3-yl}-2-(3-methyl-1H-pyrazol-5-yl)acetamide], for which the IC50 worked out at 330 nM.

These data come from patent publication US8846698B2, “Pyrrolo[2,3-d]pyrimidine tropomysin-related kinase inhibitors” (Pfizer Limited, priority 2011, dated 2014).
